From patent US12228565B2, “Blood cell lysis compositions and uses thereof” (Instrumentation Laboratory Company, priority 2021, dated 2025)

What was measured:
[1] = Foam height of surfactant in water based solution (Ross-Miles method); format: physicochemical
Source text: (§1) Surfactants used for lysing, including the secondary alcohol ethoxylates described herein, may lower surface tension in a liquid blood sample and induce foam formation in the blood sample as air is mixed into the blood sample. Foam is detrimental to optical absorbance measurements because it causes additional light scattering. In some implementations, surfactants for performing cell lysis in CO-Oximetry may reduce or minimize foam formation and/or produce foam that dissipates quickly prior to spectral measurements. […] (Celsius). […] Standard measurements of the foam height may be taken, for example, five minutes after addition of the surfactant to a water based solution. The foam height produced by a secondary alcohol ethoxylate may be measured, for example, using the Ross-Miles method.
(§2) Triton-X100 is a control (or reference) surfactant against which the secondary alcohol ethoxylate surfactants are compared. […] In Table 1 below, […], which is a property of the surfactant that indicates/relates to the effectiveness of the material as a surfactant.

[2] = Surface tension of surfactant; format: physicochemical
Source text: as §1, §2

whole blood cells = settings: after 1 to 2 seconds; composition of Table 2, surfactant 9-14%
Source text: The blood sample analyzed by CO-Oximeter system 5 may be a whole blood sample that is lysed using one or more of the blood cell lysing compositions described herein. More specifically, in example CO-Oximeter 5, a blood cell lysis composition and a blood sample are introduced into a mixing chamber—e.g., through a mixing valve—in an optical cell 7. Movement of the blood sample and blood cell lysis composition through the mixing chamber under simultaneous actuation implemented by a solenoid causes the blood sample and lysis composition to simultaneously mix and lyse the red blood cells. The resulting mixture constitutes a lysed blood sample that is usable to obtain optical absorbance measurements by the CO-Oximeter with a reduction or elimination of scattering effects caused by red blood cells.
In an example testing procedure, secondary alcohol ethoxylate1 and secondary alcohol ethoxylate2 were included in the example blood cell lysis composition described with respect to Table 2 below at concentrations of 9% to 14% and tested in a CO-Oximetry system of the type described herein.

Row | Substance | Foam Height—5 minutes (0.1 weight % actives) [1] [mm] | Foam height—Initial (0.1 weight % actives) [1] [mm] | Surface Tension (1% actives, 25° C.) [2] | lysis of whole blood cells (whole blood cells)
1 | Tergitol™ Type 15-S-9 [secondary alcohol ethoxylate2] | 43 | 124 | 30 dynes/cm | about 100%
2 | Triton X-100 [reference compound] | 107 | 128 | 33 dynes/ dynes/cm | –
